Reference: publication PMC6001238, “Iterative Chemical Engineering of Vancomycin Leads to Novel Vancomycin Analogs With a High in Vitro Therapeutic Index” (Frontiers in Microbiology, 2018)
Converted amounts (≈) assume the structure as drawn.

Assays:
[1] = test system: S. aureus VISA/HIP5827; assay: MIC, broth microdilution, vancomycin-intermediate S. aureus VISA HIP5827; type: cell-based, Staphylococcus aureus; conditions: for MIC: Staphylococcus aureus VISA/HIP5827, read-out: MIC; for MIC-fold improvement vs. vancomycin: VISA/HIP5827, ratio of MIC of vancomycin and MIC of analogue
How it was run: (§1)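 Inhibitory concentrations were read by the CLSI broth microdilution procedure, with water and sterile broth as controls. One experiment added vancomycin (10 μM final) together with each analogue or reference antibiotic.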

[2] = test system: MRSA KS6; assay: MIC, broth microdilution, MRSA KS6; type: cell-based, Staphylococcus aureus; conditions: for MIC-fold improvement vs. vancomycin: MRSA KS6, ratio of MIC of vancomycin and MIC of analogue; for MIC: Staphylococcus aureus MRSA KS6, read-out: MIC
How it was run: as §1

[3] = test system: E. faecalis VRE 6; assay: MIC, broth microdilution, vancomycin-resistant E. faecalis VRE 6 (VanA); type: cell-based, Enterococcus faecalis; conditions: for MIC: Enterococcus faecalis VRE 6 (vancomycin-resistant), read-out: MIC; for MIC-fold improvement vs. vancomycin: VRE 6, ratio of MIC of vancomycin and MIC of analogue
How it was run: as §1

[4] = test system: E. faecalis VRE 53; assay: MIC, broth microdilution, vancomycin-resistant E. faecalis VRE 53 (VanA); type: cell-based, Enterococcus faecalis; conditions: for MIC: Enterococcus faecalis VRE 53 (vancomycin-resistant), read-out: MIC; for MIC-fold improvement vs. vancomycin: VRE 53, ratio of MIC of vancomycin and MIC of analogue
How it was run: as §1

[5] = test system: MRSA KS1; assay: MIC, broth microdilution, MRSA KS1; type: cell-based, Staphylococcus aureus; conditions: for MIC-fold improvement vs. vancomycin: MRSA KS1, ratio of MIC of vancomycin and MIC of analogue; for MIC: Staphylococcus aureus MRSA KS1, read-out: MIC
How it was run: as §1

[6] = test system: Murine leukemia (L1210) cells; assay: Cytostatic activity, L1210 cell proliferation; type: cell-based; conditions: mean ± SD of three experiments; highest concentration tested 250 µM; 2 days; read-out: Toxicity (IC50) L1210
How it was run: (§2)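 Test compounds, serially diluted, received an equal volume of cell suspension at 300,000–500,000 cells/mL. After 37°C incubation (2 days for L1210, 3 for CEM, 4 for HeLa), cells were enumerated by Coulter counting and 50%-inhibitory concentrations calculated per cell type.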

[7] = test system: human cervix carcinoma (HeLa) cells; assay: Cytostatic activity, HeLa cell proliferation; type: cell-based; conditions: mean ± SD of three experiments; highest concentration tested 250 µM; 4 days; read-out: Toxicity (IC50) HeLa
How it was run: as §2

[8] = test system: MRSA KS2; assay: MIC, broth microdilution, MRSA KS2; type: cell-based, Staphylococcus aureus; conditions: for MIC-fold improvement vs. vancomycin: MRSA KS2, ratio of MIC of vancomycin and MIC of analogue; for MIC: Staphylococcus aureus MRSA KS2, read-out: MIC
How it was run: as §1

[9] = test system: E. faecalis VSE 1; assay: MIC, broth microdilution, vancomycin-sensitive E. faecalis (VSE 1); type: cell-based, Enterococcus faecalis; conditions: for MIC: Enterococcus faecalis VSE 1 (vancomycin-sensitive), read-out: MIC; for MIC-fold improvement vs. vancomycin: VSE 1, ratio of MIC of vancomycin and MIC of analogue
How it was run: as §1

[10] = test system: L1210, CEM and HeLa cell lines; assay: Cytostatic activity, average or summary over L1210, CEM and HeLa; type: cell-based; conditions: average of L1210, CEM and HeLa; read-out: Toxicity (IC50) Average
How it was run: as §2

[11] = test system: E. faecalis VRE 37; assay: MIC, broth microdilution, vancomycin-resistant E. faecalis VRE 37 (VanA); type: cell-based, Enterococcus faecalis; conditions: for MIC: Enterococcus faecalis VRE 37 (vancomycin-resistant), read-out: MIC; for MIC-fold improvement vs. vancomycin: VRE 37, ratio of MIC of vancomycin and MIC of analogue
How it was run: as §1

[12] = test system: S. aureus VSSA (ATCC 6538); assay: MIC, broth microdilution, vancomycin-sensitive S. aureus (VSSA/MSSA, ATCC 6538); type: cell-based, Staphylococcus aureus; conditions: for MIC: Staphylococcus aureus VSSA, read-out: MIC; for MIC-fold improvement vs. vancomycin: VSSA, ratio of MIC of vancomycin and MIC of analogue
How it was run: as §1

[13] = test system: MRSA KS89; assay: MIC, broth microdilution, MRSA KS89; type: cell-based, Staphylococcus aureus; conditions: for MIC-fold improvement vs. vancomycin: MRSA KS8, ratio of MIC of vancomycin and MIC of analogue; for MIC: Staphylococcus aureus MRSA KS8, read-out: MIC
How it was run: as §1

[14] = test system: S. aureus VRSA; assay: MIC, broth microdilution, vancomycin-resistant S. aureus (VRSA); type: cell-based, Staphylococcus aureus; conditions: for MIC: Staphylococcus aureus VRSA, read-out: MIC; for MIC-fold improvement vs. vancomycin: VRSA, ratio of MIC of vancomycin and MIC of analogue
How it was run: as §1

[15] = test system: E. faecalis VRE 29; assay: MIC, broth microdilution, vancomycin-resistant E. faecalis VRE 29 (VanA); type: cell-based, Enterococcus faecalis; conditions: for MIC: Enterococcus faecalis VRE 29 (vancomycin-resistant), read-out: MIC; for MIC-fold improvement vs. vancomycin: VRE 29, ratio of MIC of vancomycin and MIC of analogue
How it was run: as §1

[16] = test system: human T-lymphocyte (CEM) cells; assay: Cytostatic activity, CEM cell proliferation; type: cell-based; conditions: mean ± SD of three experiments; highest concentration tested 250 µM; 3 days; read-out: Toxicity (IC50) CEM
How it was run: as §2

SMILES	MIC [1]	MIC-fold improvement vs. vancomycin [1]	MIC-fold improvement vs. vancomycin [2]	MIC [2]	MIC [3]	MIC-fold improvement vs. vancomycin [3]	MIC [4]	MIC-fold improvement vs. vancomycin [4]	MIC-fold improvement vs. vancomycin [5]	MIC [5]	IC50 [6]	IC50 [7]	MIC-fold improvement vs. vancomycin [8]	MIC [8]	MIC [9]	MIC-fold improvement vs. vancomycin [9]	IC50 [10]	MIC [11]	MIC-fold improvement vs. vancomycin [11]	MIC [12]	also measured
CN[C@H](CC(C)C)C(=O)N[C@H]1C(=O)N[C@@H](CC(N)=O)C(=O)N[C@H]2C(=O)N[C@H]3C(=O)N[C@H](C(=O)N[C@H](C(=O)NCCNC(=O)/C=C/c4ccc(C)cc4)c4cc(O)cc(O)c4-c4cc3ccc4O)[C@H](O)c3ccc(c(Cl)c3)Oc3cc2cc(c3O[C@@H]2O[C@H](CO)[C@@H](O)[C@H](O)[C@H]2O[C@H]2C[C@](C)(N)[C@H](O)[C@H](C)O2)Oc2ccc(cc2Cl)[C@H]1O [Vanc-53]	0.78 µM (≈ 1.28 µg/mL)	8	2	0.39 µM (≈ 0.638 µg/mL)	12.5 µM (≈ 20.4 µg/mL)	16	12.5 µM (≈ 20.4 µg/mL)	32	2	0.39 µM (≈ 0.638 µg/mL)	176 ± 18 µM	176 ± 103 µM	2	0.39 µM (≈ 0.638 µg/mL)	0.78 µM (≈ 1.28 µg/mL)	2	168 µM	25 µM (≈ 40.9 µg/mL)	16	0.39 µM (≈ 0.638 µg/mL)	MIC-fold improvement vs. vancomycin [12]: 2; MIC-fold improvement vs. vancomycin [13]: 2; MIC [13]: 0.39 µM (≈ 0.638 µg/mL); MIC [14]: 0.39 µM (≈ 0.638 µg/mL); MIC-fold improvement vs. vancomycin [14]: 256; MIC [15]: 25 µM (≈ 40.9 µg/mL); MIC-fold improvement vs. vancomycin [15]: 16; IC50 [16]: 152 ± 43 µM
CCOc1ccc(-c2ccc(NC(=O)CNC(=O)C3NC(=O)C4NC(=O)C(NC(=O)C5NC(=O)C(CC(N)=O)NC(=O)C(NC(=O)C(CC(C)C)NC)C(O)c6ccc(c(Cl)c6)Oc6cc5cc(c6OC5OC(CO)C(O)C(O)C5OC5CC(C)(N)C(O)C(C)O5)Oc5ccc(cc5Cl)C4O)c4ccc(O)c(c4)-c4c(O)cc(O)cc43)cc2)cc1 (centres unmarked) [Vanc-86]	0.78 µM (≈ 1.33 µg/mL)	8	2	0.39 µM (≈ 0.664 µg/mL)	1.56 µM (≈ 2.65 µg/mL)	128	12.5 µM (≈ 21.3 µg/mL)	32	4	0.20 µM (≈ 0.34 µg/mL)	3 ± 2.3 µM	9.8 ± 5.8 µM	4	0.20 µM (≈ 0.34 µg/mL)	≤0.05 µM	≥32	5 µM	6.25 µM (≈ 10.6 µg/mL)	64	0.39 µM (≈ 0.664 µg/mL)	MIC-fold improvement vs. vancomycin [12]: 2; MIC-fold improvement vs. vancomycin [13]: 2; MIC [13]: 0.39 µM (≈ 0.664 µg/mL); MIC [14]: 1.56 µM (≈ 2.65 µg/mL); MIC-fold improvement vs. vancomycin [14]: 64; MIC [15]: 3.13 µM (≈ 5.33 µg/mL); MIC-fold improvement vs. vancomycin [15]: 128; IC50 [16]: 1 ± 0.2 µM
